Experimental data taken from patent US9241976B2, “Use of HDL-related molecules to treat and prevent proinflammatory conditions” (THE REGENTS OF THE UNIVERSITY OF CALIFORNIA, priority 2011, dated 2016).

Tests used:
HIF-1α [1] = assay: Immunofluorescence staining of nuclear HIF-1α in OV2008 cells; assay type: cell-based, human
Experimental: Immunofluorescence staining was performed as described previously (Lee et al., 2006). In brief, OV2008 cells were plated onto a glass slip (Thermo Fisher Scientific) in 24-well plates at 4×10^4 cells per well and grown in complete medium overnight. After starvation overnight, cells were subjected to L-4F treatment in the presence or absence of stimulators. Then, cells were fixed in 4% neutral buffered formaldehyde for 25 min at room temperature, permeabilized with 0.5% Triton X-100 in PBS for 10 min, and blocked with 10% normal goat serum, 1% bovine serum albumin, and 0.3 M glycine prepared in PBS for 1 h. Cells were incubated with mouse anti-HIF-1α (1:200) overnight at 4° C. and incubated with Alexa Fluor 568 goat anti-mouse IgG (Invitrogen) for 1 h. Finally, cells were covered with VectaMount solution containing DAPI (Vector Laboratories, Burlingame, Calif.), and images were captured with a fluorescence microscope (Olympus IX70).

[2] = tested on: mouse ovarian cancer cells (ID-8 cells); conditions: reference (17); cited from earlier work
p70s6 kinase = assay: Insulin-stimulated phosphorylation of S6 kinase in OV2008 cells, Western blot; assay type: cell-based, human; conditions: 10 μg/ml, insulin 200 nM
Experimental: (§1) FIGS. 10A-10B. Effect of L-4F on the insulin-stimulated activation of downstream signaling molecules in OV2008 cells. After an overnight starvation, OV2008 cells were treated with L-4F (10 μg/ml) for 1 h, and insulin was added at a final concentration of 200 nM. Cell lysates were collected at various time points and subjected to Western blot analysis. FIG. 10A, L-4F inhibits insulin-stimulated phosphorylation of p70s6 kinase and subsequent HIF-1α expression in OV2008 cells. FIG. 10B, effect of L-4F on insulinstimulated phosphorylation of ERK1/2 and Akt in OV2008 cells.
(§2) Western blot analyses were performed as described previously (Gao et al., 2011). In brief, cell lysates were collected in a lysis buffer containing 0.1 MNaCl, 5 mM EDTA, 50 μM sodium orthovanadate, 1% Triton X-100, and protease inhibitor tablet (Roche Diagnostics, Indianapolis, Ind.) in 50 mM Tris buffer, pH 7.5, loaded onto 4 to 12% Bis-Tris gel (Invitrogen), transferred to polyvinylidene difluoride membrane, and incubated with the appropriate antibodies. […]

ID8 cells = conditions: cited from earlier work
ROS = assay: Cellular reactive oxygen species, dichlorofluorescein oxidation assay in OV2008 cells; assay type: cell-based, human; conditions: 10 μg/ml pretreatment 1 h
Experimental: As described previously (Zhou et al., 2007; Lee et al., 2009), OV2008 cells were plated onto a glass slip (Thermo Fisher Scientific) in a 24-well plate at 4×10^4 cells per well, cultured overnight in normal cultured condition, starved in serum-free media overnight, and treated with L-4F (10 μg/ml) for 1 h. Then, dichlorofluorescein diacetate (DCFHDA, 10 μM) and insulin (200 nM)/CoCl2 (100 μM) were added and incubated with the cells for an additional 0.5 h. The cells were washed twice with phosphate-buffered saline (PBS). The images were captured with a fluorescence microscope (Olympus IX70; Olympus, Tokyo, Japan).

CD31 = assay: ID8 flank tumor model, CD31 staining of vessels; assay type: in vivo, mouse; conditions: C57BL/6J mice, 10 mg/kg s.c. daily for 3 weeks, vs control group
Experimental: (§3) Nine-week-old C57BL/6J female mice were given a 0.5-ml subcutaneous injection of 5×10^6 ID8 cells prepared as a single cell suspension in PBS mixed with an equal volume of cold Matrigel (BD Biosciences, San Jose, Calif.). After 2 weeks, mice started to receive scrambled 4F peptide (sc-4F) or L-4F (10 mg/kg) by subcutaneous injection at a site distant from the site where the ID8 cells were injected daily for 3 weeks. After 3 weeks, the mice were sacrificed for tumor collection and further analyses.
(§4) Frozen tumor tissues were sectioned at a thickness of 5 μm and fixed with cold acetone for 10 min at −20° C. The sections were blocked with 10% normal goat serum and 4% bovine serum albumin prepared in PBS for 3 h and immediately incubated with rabbit anti-mouse polyclonal HIF-1α antibody (1:200) (Abcam Inc.) or rat anti-mouse monoclonal CD31 antibody (1:25) (Abcam Inc.) overnight at 4° C. The sections were then incubated with corresponding biotinylated secondary antibodies (Vector Laboratories) for 30 min at room temperature followed by incubation with Vectastain ABC Elite reagents (Vector Laboratories) to visualize the staining. Finally, sections were lightly counterstained with hematoxylin, dehydrated, and coverslipped with Vecta-Mount solution (Vector Laboratories).

HIF-1α [3] = assay: HIF-1α protein stability with cycloheximide in OV2008 cells; assay type: cell-based, human; conditions: insulin 200 nM, CHX 20 μg/ml, L-4F 10 μg/ml
Experimental: FIGS. 11A-11B. Effect of L-4F on HIF-1α protein stability in OV2008 cells. FIG. 11A, left, pretreatment of L-4F promotes HIF-1α degradation in OV2008 cells. After an overnight starvation, OV2008 cells were treated with insulin (200 nM) for 3 h, L-4F (10 μg/ml) for 1 h, and CHX (20 μg/ml) for various durations. Cell lysates were collected and subjected to Western blot analysis. […] Right, L-4F treatment promotes HIF-1α degradation in OV2008 cells. After an overnight starvation, OV2008 cells were treated with insulin (200 nM) for 3 h and then treated with L-4F (10 μg/ml) and CHX (20 μg/ml) at the same time. Cell lysates were collected at various time points and subjected to Western blot analysis. […] FIG. 11B, effect of pretreatment of L-4F on proteasome-mediated degradation of HIF-1α in insulin-treated OV2008 cells. After an overnight starvation, OV2008 cells were treated with MG-132 (10 μM) for 3 h, L-4F (10 μg/ml) for 1 h, and insulin (200 nM) for an additional 4 h. Cell lysates were collected and subjected to Western blot analysis.
Western blot analyses were performed as described previously (Gao et al., 2011). […]

Akt = assay: Insulin-stimulated phosphorylation of Akt in OV2008 cells, Western blot; assay type: cell-based, human; conditions: 10 μg/ml, insulin 200 nM
Experimental: as §1, §2

HIF-1α [4] = assay: ID8 flank tumor model, HIF-1α immunohistochemistry; assay type: in vivo, mouse; conditions: C57BL/6J mice, ID8 tumors; 10 mg/kg s.c. daily for 3 weeks; vs sc-4F
Experimental: as §3, §4

For “Ac-DWFKAFYDKVAEKFKEAF-NH2 [L-4F, Ac-D-W-F-K-A-F-Y-D-K-V-A-E-K-F-K-E-A-F-NH2]”, the “nuclear expression of HIF-1α, post-treatment” value (HIF-1α [1]; OV2008 cells stimulated first with CoCl2 or insulin, 10 μg/ml) is listed as “decreased nuclear expression”, the “CoCl2- and insulin-induced accumulation of HIF-1α in nuclei” value (HIF-1α [1]; OV2008 cells, pretreatment) is listed as “dramatically reversed” and the viability and proliferation [2] is listed as “reduced”. The “insulin-stimulated phosphorylation of S6 kinase” value (p70s6 kinase) was “prevented phosphorylation”, the “ID-8 cell-mediated tumor burden” value (ID8 cells; C57BL/6J mice, administered subcutaneously or orally, reference (17)) was “decreased” and the “tumor growth and angiogenesis” value (ID8 cells; immunocompetent mouse model of ovarian cancer, ID8 (Gao et al., 2011)) was “inhibited”. The “cellular ROS production induced by insulin and CoCl2” value (ROS) was “dramatically prevented”, the “number of vessels in tumors” value (CD31) was “reduction in the number of vessels” and the “degradation of HIF-1α protein” value (HIF-1α [3]) was “accelerated the degradation”. The “insulin-stimulated phosphorylation of Akt” value (Akt) was “no effect on the phosphorylation of Akt, except at 0.5 h” and the “HIF-1α expression in tumor tissues” value (HIF-1α [4]) was “decreased”.
